The series can be described thus: In vitro stability in microsomes (rabbit). The format is in vitro ADME. To be noted: rabbits. On the procedure: Respective half-lives (T1/2) were 9.5 hours (human), 23.1 hours (monkeys), >23.1 hours (mice), >23.1 hours (rats), 19.6 hours (rabbits), and >23.1 hours (dogs).

From patent publication US20260191825A1, “CONTRACEPTIVE COMPOUNDS AND DOSING FOR THE SAME” (YourChoice Therapeutics, Inc., priority 2024, published 2026) come the findings set out here.

Structures are written as SMILES.

On to `Cc1ccc(C2=CC(C)(C)Oc3ccc(-c4ccc(-c5ccc(C(=O)O)cc5)[nH]4)cc32)cc1` [Compound A], for which, where the note is “rabbit, read-out: Half-life (T1/2) in microsomes (converted)”, the half-life is 19.6 h. Also, for the setting “90 minutes”, the Compound remaining intact is recorded as 99%.
